Holding throughout (type): cell-based
One experiment addresses human GcgR (Homo sapiens, UniProt P47871). The experiment can be described thus: Functional cAMP activity in the presence of 1% HSA. Particulars: read-out: cAMP Rel EC50, hGcgR.
The target of experiment [1] is T1, hGLP-1R (Homo sapiens, UniProt P43220). The experiment can be described thus: Functional cAMP activation in the presence of 0.1% casein (no HSA). Particulars: in the presence of 0.1% casein (no HSA); geometric mean; read-out: Relative cAMP EC50, hGLP-1R.
Experiment [2] deals with T2, hGIPR (Homo sapiens, UniProt P48546).
T2 sequence (P48546 22-466): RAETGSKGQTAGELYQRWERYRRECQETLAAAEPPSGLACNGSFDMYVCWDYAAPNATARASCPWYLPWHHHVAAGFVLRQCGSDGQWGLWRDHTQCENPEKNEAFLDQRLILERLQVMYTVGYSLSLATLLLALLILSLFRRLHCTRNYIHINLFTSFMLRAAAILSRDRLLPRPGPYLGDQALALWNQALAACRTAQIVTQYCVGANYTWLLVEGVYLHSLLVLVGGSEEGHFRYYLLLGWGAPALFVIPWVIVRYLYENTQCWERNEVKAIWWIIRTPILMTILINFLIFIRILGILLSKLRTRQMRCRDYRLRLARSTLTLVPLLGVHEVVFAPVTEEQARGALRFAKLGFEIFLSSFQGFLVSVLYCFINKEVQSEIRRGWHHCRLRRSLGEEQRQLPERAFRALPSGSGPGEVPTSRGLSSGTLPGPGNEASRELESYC
The description is as above. Particulars: in the presence of 0.1% casein (no HSA); geometric mean; read-out: Relative cAMP EC50, hGIPR.

In the next experiment the target is hGcgR (Homo sapiens, UniProt P47871). Described as above. Particulars: in the presence of 0.1% casein (no HSA); geometric mean; read-out: Relative cAMP EC50, hGcgR.
For experiment [3], the target named is T1, hGLP-1R. The experiment can be described thus: Functional cAMP activity in the presence of 1% HSA. The note with it: read-out: cAMP Rel EC50, hGLP-1R.
Experiment [4] has as its target T2, hGIPR. The experiment can be described thus: Functional cAMP activity in the presence of 1% HSA. Particulars: read-out: cAMP Rel EC50, hGIPR.

Starred links: 1 amine or outer side, 2 acyl side, 3 side chain; linkers in the order of their positions; H or OH if unused. Non-standard residues stand in square brackets, D forms with d. Groups on a side chain read outwards from the residue. No end group written: not given here. *: point of attachment. C18 diacid = O=C(O)CCCCCCCCCCCCCCCCC(=O)*; γGlu = O=C(O)[C@H](CCC(=O)[*:2])N[*:1]; αMe4Pal = C[C@](N)(Cc1ccncc1)C(=O)O; αMeY = C[C@](N)(Cc1ccc(O)cc1)C(=O)O; 4Pal = N[C@@H](Cc1ccncc1)C(=O)O; αMeL = CC(C)C[C@](C)(N)C(=O)O; Orn = NCCC[C@H](N)C(=O)O; Aib = CC(C)(N)C(=O)O
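For Relative cAMP EC50, hGIPR in this document: intracellular cAMP rise after 30 min at 37 °C read by HTRF against a standard curve, scaled between buffer alone (0%) and top control ligand concentration (100%), four-parameter fit.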
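For Relative cAMP EC50, hGLP-1R in this document: intracellular cAMP rise after 30 min at 37 °C read by HTRF, normalized between buffer only (0%) and maximal control ligand (100%), four-parameter variable-slope fit.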
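For Relative cAMP EC50, hGcgR in this document: intracellular cAMP rise after 30 min at 37 °C, read by HTRF against a cAMP standard curve, scaled from buffer only (0%) to maximal control ligand response (100%).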

T1 sequence (P43220 24-463): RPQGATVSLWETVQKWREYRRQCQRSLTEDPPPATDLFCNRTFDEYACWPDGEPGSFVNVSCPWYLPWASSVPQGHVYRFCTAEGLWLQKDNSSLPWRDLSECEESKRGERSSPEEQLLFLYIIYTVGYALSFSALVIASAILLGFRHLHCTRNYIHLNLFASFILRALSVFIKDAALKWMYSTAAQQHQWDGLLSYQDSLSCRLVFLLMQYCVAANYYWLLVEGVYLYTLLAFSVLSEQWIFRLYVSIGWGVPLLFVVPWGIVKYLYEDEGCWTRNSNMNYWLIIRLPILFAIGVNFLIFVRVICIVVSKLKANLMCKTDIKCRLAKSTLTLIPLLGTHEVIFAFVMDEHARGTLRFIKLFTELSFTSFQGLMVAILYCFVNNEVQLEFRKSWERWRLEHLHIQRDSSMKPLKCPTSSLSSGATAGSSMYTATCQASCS
human GcgR, sequence (P47871 26-477): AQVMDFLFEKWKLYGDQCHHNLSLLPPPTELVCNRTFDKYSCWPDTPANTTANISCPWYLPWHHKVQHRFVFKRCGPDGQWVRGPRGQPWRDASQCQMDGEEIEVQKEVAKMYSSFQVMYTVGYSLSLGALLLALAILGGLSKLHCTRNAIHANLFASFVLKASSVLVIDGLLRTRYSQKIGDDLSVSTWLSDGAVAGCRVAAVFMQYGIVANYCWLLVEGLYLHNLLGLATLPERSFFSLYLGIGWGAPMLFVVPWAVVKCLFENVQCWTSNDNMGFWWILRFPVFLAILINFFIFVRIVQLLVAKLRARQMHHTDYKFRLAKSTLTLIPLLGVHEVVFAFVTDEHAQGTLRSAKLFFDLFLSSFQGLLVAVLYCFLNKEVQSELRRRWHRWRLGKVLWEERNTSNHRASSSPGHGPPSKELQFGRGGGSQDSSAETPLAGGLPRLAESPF
hGcgR, sequence (P47871 26-477): as above

With “H-Y[Aib]QGTFTSD[4Pal]SQ[αMeL]LD[Orn]K([dE-γGlu-C18 diacid])AQ[αMe4Pal]AFIE[αMeY]LIE[Aib]GPSSGEPPPSGSEE-NH2 [Example 1103]”, the EC50 is 1350 nM on human GcgR; 1.06 nM on hGLP-1R [1]; 0.0723 nM on hGIPR [2]; 11.1 nM at hGcgR; 183 nM on hGLP-1R [3]; 19.5 nM on hGIPR [4].

With “H-Y[Aib]QGTFTSD[4Pal]SQ[αMeL]LD[Orn]K([dE-γGlu-C18 diacid])AQ[αMe4Pal]AFIE[αMeY]LLAGGPSSGAPPPSGSEEE-NH2 [Example 1082]”, the EC50 was found to be 1530 nM on human GcgR; 4.13 nM at hGLP-1R [1]; 0.099 nM at hGIPR [2]; 12.3 nM on hGcgR; 677 nM at hGLP-1R [3]; 12.3 nM on hGIPR [4].

“H-Y[Aib]QGTFTSD[4Pal]SQ[αMeL]LD[Orn]K([dE-γGlu-C18 diacid])AQ[αMe4Pal]AFIQ[αMeY]LIA[Aib]GPSSGEPPPSGGGE-NH2 [Example 1130]”: the EC50 at human GcgR was 1240 nM; on hGLP-1R [1] it was 0.641 nM; on hGIPR [2] it was 0.0441 nM; on hGcgR, 13.3 nM; on hGLP-1R [3], 44.5 nM; at hGIPR [4], 3.73 nM.

For the substance “H-Y[Aib]QGTFTSD[4Pal]SQ[αMeL]LD[Orn]K([dE-γGlu-C18 diacid])AQ[αMe4Pal]QFIE[αMeY]LLAGGPSSGAPPPSGSEEE-NH2 [Example 1084]”, the EC50 is 1390 nM on human GcgR; 10.3 nM on hGLP-1R [1]; 0.0975 nM on hGIPR [2]; 11.5 nM on hGcgR; 761 nM on hGLP-1R [3]; 17.2 nM on hGIPR [4].

On to “H-Y[Aib]QGTFTSD[4Pal]SQ[αMeL]LD[Orn]K([dE-γGlu-C18 diacid])AQ[αMe4Pal]QFIQ[αMeY]LIE[Aib]GPSSGEPPPSGGGE-NH2 [Example 1129]”, for which the EC50 at human GcgR turned out to be 796 nM; on hGLP-1R [1], 0.501 nM; at hGIPR [2], 0.048 nM; at hGcgR it was 6.11 nM; at hGLP-1R [3], 56.6 nM; on hGIPR [4] it was 4.16 nM.

“H-Y[Aib]QGTFTSD[4Pal]SQ[αMeL]LD[Orn]K([γGlu-γGlu-C18 diacid])AQ[Aib]AFIE[αMeY]LLEGGPSSGAPPPSGSEE-NH2 [Example 946]”: the EC50 at human GcgR amounted to 1950 nM; on hGLP-1R [1] it was 2.05 nM; at hGIPR [2], 0.353 nM; on hGcgR, 16.5 nM; on hGLP-1R [3], 576 nM; on hGIPR [4], 57.4 nM.

Turning to “H-Y[Aib]QGTFTSD[4Pal]SQ[αMeL]LD[Orn]K([γGlu-γGlu-C18 diacid])AQ[αMe4Pal]AFIEYLIAGGPSSGEPPPSGS-NH2 [Example 1007]”, the EC50 amounted to 636 nM at human GcgR; 0.668 nM at hGLP-1R [1]; 0.116 nM on hGIPR [2]; 5.34 nM on hGcgR; 95.1 nM at hGLP-1R [3]; 12 nM at hGIPR [4].

“H-Y[Aib]QGTFTSD[4Pal]SQ[αMeL]LD[Orn]K([γGlu-γGlu-C18 diacid])AQ[αMe4Pal]AFIEYLIAGGPSSGEPPPSGSE [Example 977]”: the 50% effective concentration (EC50) at human GcgR amounted to 839 nM; on hGLP-1R [1], 1.1 nM; on hGIPR [2] it was 0.189 nM; on hGcgR it was 7.18 nM; on hGLP-1R [3] it was 159 nM; at hGIPR [4] it was 23 nM.

As to “H-Y[Aib]QGTFTSD[4Pal]SQ[αMeL]LD[Orn]K([γGlu-γGlu-C18 diacid])AQ[αMe4Pal]AFIEYLIAGGPSSGEPPPSGSE-NH2 [Example 1008]”, the EC50 at human GcgR is 1010 nM; at hGLP-1R [1] it was 1.09 nM; at hGIPR [2] it was 0.14 nM; on hGcgR, 7.47 nM; at hGLP-1R [3], 126 nM; at hGIPR [4], 15.2 nM.

The record behind these values is patent US20240270821A1, “GIP/GLP1/GCG TRI-RECEPTOR AGONISTS AND USES THEREOF” (priority 2023, published 2024).
